Data from publication PMC5983452 (PLoS ONE, 2018).
Where a name gives a salt, the structure may show the parent alone. Read-outs that look alike come from different tables or passages of the source.

Tested on: panel of 240 cancer cell lines
Assay: Proliferation in a broad panel of 240 cancer cell lines, 2D culture (Eurofins Panlabs Oncopanel)
Assay type: cell-based
Experimental: Cell lines used in these experiments were obtained from the following sources and were cultured according to conditions specified by the respective cell banks. […] The cell lines listed above were tested for mycoplasma and were negative. Cells were authenticated by STR method or vendor protocols. All 313 cell lines in the CRIPSR pooled screen were purchased from commercial vendors and were STR authenticated and mycoplasma negative. A broad panel of cancer cell lines was screened in the Eurofins Oncopanel. All cells in this panel were mycoplasma negative and STR verified.

Measured: IC50

NC1CCC(S(=O)(=O)N2C3CCC2CC(NC(=O)c2cc(C4CC4)on2)C3)CC1 [EPZ028862, N-((1R,3R,5S)-8-((1r,4R)-4-aminocyclohexylsulfonyl)-8-aza-bicyclo[3.2.1]octan-3-yl)-5-cyclopropylisoxazole-3-carboxamide hydrochloride]
> 25 µM: Homo sapiens, LS174T, LS-174T, Colon/GI, read-out: IC50 | Homo sapiens, LS-1034, LS1034, Colon/GI, read-out: IC50 | Homo sapiens, MC-IXC, CNS, read-out: IC50 | Homo sapiens, MCF7, MCF7, Breast, read-out: IC50 | Homo sapiens, MDA-MB-231, MDA MB 231, Breast, read-out: IC50 | Homo sapiens, MDA-MB-436, MDA-MB-436, Breast, read-out: IC50 | Homo sapiens, MDA-MB-453, MDA MB 453, Breast, read-out: IC50 | Homo sapiens, MDA-MB-468, MDA MB 468, Breast, read-out: IC50 | Homo sapiens, MEG-01, MEG01, Haematopoietic and lymphoid, read-out: IC50 | Homo sapiens, MES-SA, Soft Tissue, read-out: IC50 | Homo sapiens, MG-63, MG-63, Soft Tissue, read-out: IC50 | Homo sapiens, MHH-PREB-1, MHH-PREB-1, Haematopoietic and lymphoid, read-out: IC50 | Homo sapiens, MIA PaCa-2, Mia PaCa-2, Pancreas, read-out: IC50 | Homo sapiens, MOLT-3, MOLT-3, Haematopoietic and lymphoid, read-out: IC50 | Homo sapiens, MOLT-16, MOLT-16, Haematopoietic and lymphoid, read-out: IC50 | Homo sapiens, MV4-11, MV-4-11, Haematopoietic and lymphoid, read-out: IC50 | Homo sapiens, Malme-3M, MALME3M, Skin, read-out: IC50 | Homo sapiens, MeWo, Skin, read-out: IC50 | Homo sapiens, NALM-6, NALM-6, Haematopoietic and lymphoid, read-out: IC50 | Homo sapiens, NCI-H69, NCI-H69, Lung, read-out: IC50 | Homo sapiens, NCI-H292, NCI-H292, Lung, read-out: IC50 | Homo sapiens, NCI-H295R, Endocrine, read-out: IC50 | Homo sapiens, NCI-H441, NCIH441, Lung, read-out: IC50 | Homo sapiens, NCI-H446, NCIH446, Lung, read-out: IC50 | Homo sapiens, NCI-H460, NCI-H460, Lung, read-out: IC50 | Homo sapiens, NCI-H508, NCI-H508, Colon/GI, read-out: IC50 | Homo sapiens, NCI-H520, NCI-H520, Lung, read-out: IC50 | Homo sapiens, NCI-H596, NCI-H596, Lung, read-out: IC50 | Homo sapiens, NCI-H661, NCI-H661, Lung, read-out: IC50 | Homo sapiens, NCI-H747, NCI-H747, Colon/GI, read-out: IC50 | Homo sapiens, OE19, OE19, Head and Neck, read-out: IC50 | Homo sapiens, OE33, OE33, Head and Neck, read-out: IC50 | Homo sapiens, OVCAR-3, OVCAR3, Female GU, read-out: IC50 | Homo sapiens, PANC-1, PANC-1, Pancreas, read-out: IC50 | Homo sapiens, RKOE6, RKOE6, Colon/GI, read-out: IC50 | Homo sapiens, RL95-2, RL95-2, Female GU, read-out: IC50 | Homo sapiens, RPMI-6666, RPMI 6666, Haematopoietic and lymphoid, read-out: IC50 | Homo sapiens, RPMI-7951, RPMI-7951, Skin, read-out: IC50 | Homo sapiens, RPMI-8226, RPMI 8226, Haematopoietic and lymphoid, read-out: IC50 | Homo sapiens, Raji, Haematopoietic and lymphoid, read-out: IC50 | Homo sapiens, Ramos, Ramos (RA 1), Haematopoietic and lymphoid, read-out: IC50 | Homo sapiens, SAOS-2, SaOS2, Soft Tissue, read-out: IC50 | Homo sapiens, SCC-4, SCC-4, Head and Neck, read-out: IC50 | Homo sapiens, SCC-9, SCC-9, Head and Neck, read-out: IC50 | Homo sapiens, SCC-25, SCC-25, Head and Neck, read-out: IC50 | Homo sapiens, SCaBER, Bladder, read-out: IC50 | Homo sapiens, SHP77, SHP-77, Lung, read-out: IC50 | Homo sapiens, SJRH30, SJRH30, Soft Tissue, read-out: IC50 | Homo sapiens, SJSA-1, SJSA1, Soft Tissue, read-out: IC50 | Homo sapiens, SK-BR-3, SK-BR-3, Breast, read-out: IC50 | Homo sapiens, SK-LMS-1, SK-LMS-1, Soft Tissue, read-out: IC50 | Homo sapiens, SK-MEL3, SK-MEL-3, Skin, read-out: IC50 | Homo sapiens, SK-MEL-1, SK-MEL-1, Skin, read-out: IC50 | Homo sapiens, SK-MEL-28, SK-MEL-28, Skin, read-out: IC50 | Homo sapiens, SK-MES-1, SKMES1, Lung, read-out: IC50 | Homo sapiens, SK-N-AS, CNS, read-out: IC50 | Homo sapiens, SK-N-DZ, CNS, read-out: IC50 | Homo sapiens, SK-N-FI, CNS, read-out: IC50 | Homo sapiens, SK-NEP-1, SK-NEP-1, Kidney, read-out: IC50 | Homo sapiens, SK-OV-3, SKOV3, Female GU, read-out: IC50 | Homo sapiens, SK-UT-1, SK-UT-1, Soft Tissue, read-out: IC50 | Homo sapiens, SNB-19, SNB-19, CNS, read-out: IC50 | Homo sapiens, SNU1, SNU-1, Colon/GI, read-out: IC50 | Homo sapiens, SNU-5, SNU-5, Colon/GI, read-out: IC50 | Homo sapiens, SNU-16, SNU-16, Colon/GI, read-out: IC50 | Homo sapiens, SNU-423, SNU-423, Liver, read-out: IC50 | Homo sapiens, ST486, ST486, Haematopoietic and lymphoid, read-out: IC50 | Homo sapiens, SU.86.86, SU.86.86, Pancreas, read-out: IC50 | Homo sapiens, SW13, SW-13, Endocrine, read-out: IC50 | Homo sapiens, SW48, SW48, Colon/GI, read-out: IC50 | Homo sapiens, SW480, SW480, Colon/GI, read-out: IC50 | Homo sapiens, SW684, SW684, Soft Tissue, read-out: IC50 | Homo sapiens, SW837, SW837, Colon/GI, read-out: IC50 | Homo sapiens, SW872, SW872, Soft Tissue, read-out: IC50 | Homo sapiens, SW900, SW900, Lung, read-out: IC50 | Homo sapiens, SW948, SW948, Colon/GI, read-out: IC50 | Homo sapiens, SW 954, SW954, Female GU, read-out: IC50 | Homo sapiens, SW 962, SW962, Female GU, read-out: IC50 | Homo sapiens, SW982, SW982, Soft Tissue, read-out: IC50 | Homo sapiens, SW1088, SW1088, CNS, read-out: IC50 | Homo sapiens, SW1353, SW1353, Soft Tissue, read-out: IC50 | Homo sapiens, SW1417, SW1417, Colon/GI, read-out: IC50 | Homo sapiens, SW1463, SW1463, Colon/GI, read-out: IC50 | Homo sapiens, SW1783, SW1783, CNS, read-out: IC50 | Homo sapiens, SW-403, SW403, Colon/GI, read-out: IC50 | Homo sapiens, SW-620, SW620, Colon/GI, read-out: IC50 | Homo sapiens, SiHa, Female GU, read-out: IC50 | Homo sapiens, T47D, Breast, read-out: IC50 | Homo sapiens, T98G, CNS, read-out: IC50 | Homo sapiens, TCC-SUP, TCCSUP, Bladder, read-out: IC50 | Homo sapiens, THP-1, Thp1, Haematopoietic and lymphoid, read-out: IC50 | Homo sapiens, U2OS, Soft Tissue, read-out: IC50 | Homo sapiens, U138-MG, U-138MG, CNS, read-out: IC50 | Homo sapiens, U-87 MG, CNS, read-out: IC50 | Homo sapiens, UMUC3, UM-UC-3, Bladder, read-out: IC50 | Homo sapiens, WI-38, Wi38, Lung, read-out: IC50 | Homo sapiens, WiDr, Colon/GI, read-out: IC50 | Homo sapiens, YAPC, Pancreas, read-out: IC50 | Hs766T, Hs 766T, Pancreas, read-out: IC50 | J82, Bladder, read-out: IC50 | JAR, Female GU, read-out: IC50 | KHOS-240S, Soft Tissue, read-out: IC50 | KLE, Female GU, read-out: IC50 | KPL-1, KPL-1, Breast, read-out: IC50 | MT-3, Breast, read-out: IC50 | MX1, Haematopoietic and lymphoid, read-out: IC50 | OCUG-1, OCUG-1, Liver, read-out: IC50 | OE21, OE21, Head and Neck, read-out: IC50 | PC-3, Prostate, read-out: IC50 | RD, Soft Tissue, read-out: IC50 | RKO, Colon/GI, read-out: IC50 | RKOAS451, RKO-AS45-1, Colon/GI, read-out: IC50 | SH-4, Skin, read-out: IC50 | SKO-007, SKO-007, Haematopoietic and lymphoid, read-out: IC50 | SR, Haematopoietic and lymphoid, read-out: IC50 | SW579, SW579, Endocrine, read-out: IC50 | T24, Bladder, read-out: IC50 | TE 381.T, Soft Tissue, read-out: IC50 | U266B1, Haematopoietic and lymphoid, read-out: IC50 | Y79, Eye-retinoblastoma, read-out: IC50 | read-out: anti-proliferative IC50 across the panel of 240 cancer cell lines, 2D culture
